Here are results for 12 compounds from patent US7566712B2, “Biaryl piperazinyl-pyridine analogues” (Neurogen Corporation, priority 2003, dated 2009).

This assay has as its target T1, human capsaicin receptor (Homo sapiens, UniProt Q8NER1).
T1 construct: pBK-CMV expression construct encoding the full length human capsaicin receptor; expressed in transfected cells
As to the kind of experiment: Calcium mobilization assay, determination of antagonist activity (Example 6). It is filed as cell-based. To be noted: determined as described in Example 6 (calcium mobilization, antagonist activity); Table II. Summed up: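 HEK293 clonal lines stably expressing full-length human capsaicin receptor, loaded with Fluo-3 AM in KRH buffer pH 7.4, 1–2 h at 37 °C. Compounds (1–5 μM final) preincubated 0.5–6 h at room temperature, then capsaicin at its EC50 added. FLIPR/Fluoroskan calcium signal; IC50 as 50% decrease of capsaicin response.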

T1 sequence (Q8NER1 whole entry): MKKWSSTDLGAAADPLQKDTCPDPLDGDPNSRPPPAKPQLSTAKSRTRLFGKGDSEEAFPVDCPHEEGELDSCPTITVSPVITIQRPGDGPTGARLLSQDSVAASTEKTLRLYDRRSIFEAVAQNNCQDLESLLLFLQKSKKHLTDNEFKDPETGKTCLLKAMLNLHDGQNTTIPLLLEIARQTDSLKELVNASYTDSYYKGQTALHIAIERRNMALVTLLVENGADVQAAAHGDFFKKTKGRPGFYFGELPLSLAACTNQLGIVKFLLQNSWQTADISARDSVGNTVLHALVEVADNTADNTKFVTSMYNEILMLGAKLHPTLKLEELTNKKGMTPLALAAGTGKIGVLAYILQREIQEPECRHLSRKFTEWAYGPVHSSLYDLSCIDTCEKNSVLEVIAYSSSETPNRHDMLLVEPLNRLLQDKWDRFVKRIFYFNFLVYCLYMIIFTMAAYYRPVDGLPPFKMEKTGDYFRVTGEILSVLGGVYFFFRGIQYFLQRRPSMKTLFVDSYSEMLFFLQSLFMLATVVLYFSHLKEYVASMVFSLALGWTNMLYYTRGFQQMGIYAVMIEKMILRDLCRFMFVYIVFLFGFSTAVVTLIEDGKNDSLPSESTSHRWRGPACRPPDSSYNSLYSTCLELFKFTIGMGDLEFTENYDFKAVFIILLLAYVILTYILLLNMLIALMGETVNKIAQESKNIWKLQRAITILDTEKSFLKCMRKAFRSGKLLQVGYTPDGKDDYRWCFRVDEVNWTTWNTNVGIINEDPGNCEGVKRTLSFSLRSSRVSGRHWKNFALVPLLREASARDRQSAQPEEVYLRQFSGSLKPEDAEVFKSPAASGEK

In the case of `Cc1cc(-c2cc(N3CCN(c4ncccc4Cl)C[C@H]3C)nc(N3CCCCC3C)n2)ccc1F` (stereo partly drawn) [Example 745, 4-[(2R)-4-(3-chloropyridin-2-yl)-2-methylpiperazin-1-yl]-6-(4-fluoro-3-methylphenyl)-2-(2-methylpiperidin-1-yl)pyrimidine], the half-maximal inhibitory concentration (IC50) is ≤ 1 µM.
In the case of `CC1CCN1c1nc(-c2ccc(F)c(Cl)c2)cc(N2CCN(c3ncccc3C(F)(F)F)CC2)n1` (stereo not drawn) [Example 746, 4-(3-ohloro-4-fluorophenyl)-2-(2-methylazetidin-1-yl)-6-{4-[3-(trifluoromethyl)pyridin-2-yl]piperazin-1-yl}pyrimidine] it was ≤ 1 µM.
Next, `O=C1CCN1c1nc(-c2ccc(F)c(Cl)c2)cc(N2CCN(c3ncccc3C(F)(F)F)CC2)n1` [Example 747, 1-(4-(3-chloro-4-fluorophenyl)-6-{4-(3-(trifluoromethyl)pyridin-2-yl]piperazin-1-yl}pyrimidin-2-yl)azetidin-2-one]: ≤ 1 µM.
On to `CC1CCCN1c1nc(-c2ccc(F)c(F)c2)cc(N2CCN(c3ncccc3F)CC2)n1` (stereo not drawn) [Example 748, 4-(3,4-difluorophenyl)-6-[4-(3-fluoropyridin-2-yl)piperazin-1-yl]-2-(2-methylpyrrolidin-1-yl)pyrimidine], for which the IC50 is ≤ 1 µM.
In the case of `CC1CCCN1c1nc(-c2ccc(F)cc2)cc(N2CCN(c3ncccc3F)CC2)n1` (stereo not drawn) [Example 749, 4-(4-fluorophenyl)-6-[4-(3-fluoropyridin-2-yl)piperazin-1-yl]-2-(2-methylpyrrolidin-1-yl)pyrimidine] it was ≤ 1 µM; in that of `OCCN1CCN(c2nc(-c3ccc(F)c(Cl)c3)cc(N3CCN(c4ncccc4C(F)(F)F)CC3)n2)CC1` [Example 750, 2-[4-(4-(3-chloro-4-fluorophenyl)-6-{4-[3-(trifluoromethyl)pyridin-2-yl]piperazin-1-yl}pyrimidin-2-yl)piperazin-1-yl]ethanol], ≤ 1 µM.
As for `CC1CCC(C)N1c1nc(-c2ccc(F)c(Cl)c2)cc(N2CCN(c3ncccc3Cl)CC2)n1` (stereo not drawn) [Example 751, 4-(3-chloro-4-fluorophenyl)-6-[4-(3-chloropyridin-2-yl)piperazin-1-yl]-2-(2,5-dimethylpyrrolidin-1-yl)pyrimidine], the IC50 is ≤ 1 µM.
In the case of `CC1CCC(C)N1c1nc(-c2ccc(F)c(Cl)c2)cc(N2CCN(c3ncccc3Cl)C[C@H]2C)n1` (stereo partly drawn) [Example 752, 4-(3-chloro-4-fluorophenyl)-6-[(2R)-4-(3-chloropyridin-2-yl)-2-methylpiperazin-1-yl]-2-(2,5-dimethylpyrrolidin-1-yl)pyrimidine] it was ≤ 1 µM; in that of `Cc1cc(-c2cc(N3CCN(c4ncccc4C(F)(F)F)C[C@H]3C)nc(N3CCCC3)n2)ccc1F` [Example 753, 4-(4-fluoro-3-methylphenyl)-6-{(2R)-2-methyl-4-[3-(trifluoromethyl)pyridin-2-yl]piperazin-1-yl}-2-pyrrolidin-1-ylpyrimidine], ≤ 1 µM.
On to `Cc1cc(-c2cc(N3CCN(c4ncccc4C(F)(F)F)C[C@H]3C)nc(N3CCCC3C)n2)ccc1F` (stereo partly drawn) [Example 754, 4-(4-fluoro-3-methyiphenyl)-2-(2-methylpyrrolidin-1-yl)-6-{(2R)-2-methyt-4-[3-(trifluoromethyl)pyridin-2-yl]piperazin-1-yl}pyrimidine], for which the IC50 was ≤ 1 µM.
In the case of `Cc1cc(-c2cc(N3CCN(c4ncccc4C(F)(F)F)C[C@H]3C)nc(N3C(C)CCC3C)n2)ccc1F` (stereo partly drawn) [Example 755, 2-(2,5-dimethylpyrrolidin-1-yl)-4-(4-fluoro-3-methylphenyl)-6-{(2R)-2-methyl-4-[3-(trifluoromethyl)pyridin-2-yl]piperazin-1-yl}pyrimidine] it was ≤ 1 µM.
`Cc1cc(-c2cc(N3CCN(c4ncccc4C(F)(F)F)CC3)nc(N3CCC3C)n2)ccc1F` (stereo not drawn) [Example 756, 4-(4-fluoro-3-methylphenyl)-2-(2-methylazetidin-1-yl)-6-{4-[3-(trifluoromethyl)pyridin-2-yl]piperazin-1-yl}pyrimidine]: the IC50 is ≤ 1 µM.

Usually IC50 stands for the concentration needed to halve the response being measured.
